Columns and labels:
Assay type in all cases: cell-based, human
IL-8 [1] = assay: IL-8 production by CD3/CD28-stimulated TRiPS T-cell line, ELISA; settings: 15 μg/ml; CD3/CD28 Dynabeads, 24 hours
IL-8 [2] = assay: IL-8 release by LPS-stimulated HUVECs, ELISA; settings: for IL-8: LPS 200 ng/ml overnight + 15 μg/ml
Experimental: Passage 4 (i.e., four cell population doublings) human umbilical vein endothelial cells (HUVECs), human source lot number 9713 (obtained from ATCC), were put into the wells of a 48-well tissue culture plate at 20,000 cells/well in 500 μl of endothelial growth medium-2 (EGM-2) complete medium (but without serum or ascorbate) (obtained from Cambrex) supplemented with ITSS (insulin, transferrin and sodium selenite) (obtained from Sigma). Also, passage 4 HUVECs, human source lot number 7016 (obtained from ATCC), were put into the wells of a 48-well tissue culture plate at 20,000 cells/well in 500 μl of EGM-2 complete medium (but without serum or ascorbate) supplemented with ITSS. The following additives were added to the cells: water (vehicle control) and 15 μg/ml of the compound of formula II (Cpd II). After incubation for 1 hour at 37 ° C. and 5% CO2, lipopolysaccharide (LPS) (obtained from Sigma) was added to give a final concentration of 200 ng/ml, and the cells were incubated overnight at 37° C. and 5% CO2. After this incubation, the supernatants were collected, and the amount of IL-8 in the supernatants determined by ELISA as described in Example 4.

NFκB = assay: Activated NFκB in TNFα- or VEGF-treated HIAECs, TransAM assay
Experimental: Then, the amount of NFκB was determined using a TransAM™ NFκB p65/NFκB p50 Transcription Factor Assay Kit and a Nuclear Extract Kit from Active Motif North America, Carlsbad, Calif., according to the manufacturer's instructions. Briefly, a nuclear extract of the cells was prepared using the Nuclear Extract Kit. Then, the nuclear extract was added to the wells of the 96-well plate of the TransAM™ kit. Oligonucleotide containing an NFκB consensus binding site was immobilized in the wells, and the activated NFκB contained in the nuclear extract was bound to the oligonucleotide. Then, an antibody directed against the NFκB p65 or p50 subunit was added, and the NFκB complex bound to the oligonucleotide was detected. A secondary antibody conjugated to horseradish peroxidase (HRP) was next added to provide a colorimetric readout that was quantified by spectrophotometry (measurement at 450 nm).
Passage 8 (human iliac artery endothelial cells (HIAECs) (obtained from ATCC; catalog no. CC-2545) were grown to confluence in 25 cm^2 flasks in EGM-2 medium. Eighteen hours prior to the experiment, the medium was replaced with EGM-2 medium containing 0.1% FCS plus heparin, GA1000 (gentamycin) and bovine pituitary extract (all from Cambrex) to place the cells in a resting state. To perform the experiment the medium was aspirated from the flasks, and the following additives were added to the flasks in fresh medium (total volume of 5 ml/flask): 15 μg/ml of the compound of formula II (Cpd II) or 10 μM LY 294002. The flasks were incubated 2 hours at 37° C., 5% CO2 After this incubation, VEGF or TNFα was added to give a final concentration 10 ng/ml, and the flasks were incubated for an additional 30 minutes. Then, the amount of NFκB was determined using a TransAM™ NFκB p65/NFκB p50 Transcription Factor Assay Kit and a Nuclear Extract Kit from Active Motif North America, Carlsbad, Calif., as described in Example 9.

RAS = RAS activation pulldown assay in TRiPS cells; settings: CD3/CD28 beads + 15 μg/ml
Experimental: Day 10 TRiPS cells, 1×10^6, were incubated with 15 μg/ml of the compound of formula II (Cpd II) for 1 hour at 37° C. Then, the cells were incubated with CD3/CD28 beads (1 μl per 100,000 cells) (obtained from Dynal) for 10 minutes at 37° C. The cells were then lysed with a mild buffer (supplied with Pierce EZ-Detect activation kit described below) to produce cell extracts. Protein concentrations of the resulting extracts were determined by bicinchoninic acid (BCA) assay (Pierce) and placed on ice for immediate use.
Pulldown assays were performed using Pierce EZ-Detect activation kits according to the manufacturer's instructions utilizing GST-RAF-1-RBD and GST-RalGDS-RBD for RAS and RAP-1 respectively. Briefly, 400 μg total protein from each extract was combined with recombinant protein and glutathione resin and incubated at 4° C. for one hour with gentle shaking. The resin was then washed to remove unbound protein and the activated RAS and RAP-1 proteins were removed by boiling in the presence of SDS-PAGE loading dye containing reducing agent. RAS and RAP-1 western blots were performed to visualize the proteins using antibodies supplied with the kit. Densitometry of the X-ray films was done by scanning and computer analysis.

STAT4 = assay: Custom AntibodyArray, TRiPS cells: STAT4; settings: 15 μg/ml, 30 minutes
Experimental: (§1) Day 18 TRiPS cells, 1×10^6, were incubated for 30 minutes at 37° C., either with nothing added (“Nil”), with 1 μl CD3/CD28 Dynabeads (Dynal, Oslo, Norway) (“CD3/CD28 beads”) per 100,000 cells, or with CD3/CD28 beads and 15 μg/ml of the compound of formula II (Cpd II). After the incubation, the cells were lysed in Cell-Lytic Mammalian Cell Extraction Reagent (Sigma). After centrifugation to pellet cellular debris, the supernatants (cell extracts) were obtained.
(§2) The cell extracts (supernatants) were then analyzed using a Custom AntibodyArray™ manufactured by Hypromatrix Inc., Worcester, Mass., following the manufacturer's instructions. The Custom AntibodyArray™ is a nylon membrane blotted with antibodies to the proteins listed below. Briefly, the cell extracts were incubated with duplicate Custom AntibodyArray™'s for 2 hours at room temperature with slow shaking, followed by three washes with Tris buffer (150 mM NaCl, 25 mM Tris, 0.05% Tween-20, pH 7.5). HRP-labeled antibodies specific for phosphorylated-tyrosine, phosphorylated-serine and phosphorylated-threonine in Tris buffer were added, and the arrays incubated for 2 hours. After three more washes with Tris buffer, a peroxidase-reactive luminescent substrate was added. The arrays were visualized by exposure to X-ray film. Densitometry of the X-ray films was measured by scanning and computer analysis.

PI3kinaseP85 = assay: Custom AntibodyArray, TRiPS cells: PI3kinaseP85; settings: 15 μg/ml, 30 minutes
Experimental: as §1, §2

IL-4 = assay: Custom AntibodyArray, TRiPS cells: IL-4; settings: 15 μg/ml, 30 minutes
Experimental: as §1, §2

STAT6 = assay: Custom AntibodyArray, TRiPS cells: STAT6; settings: 15 μg/ml, 30 minutes
Experimental: as §1, §2

IkB-α = assay: Custom AntibodyArray, TRiPS cells: IkB-α; settings: 15 μg/ml, 30 minutes
Experimental: as §1, §2

## COC(=O)C(c1ccc(-c2ccccc2)cc1)C1CCCCN1 (centres unmarked) [Cpd II]
IL-8 [1]
  IL-8 production by the TRiPS cell line: no effect on IL-8 production
IL-8 [2]; 7016 HUVECs, LPS only 53.3
  IL-8: Below detection
IL-8 [2]; 9713 HUVECs, LPS only 485.0
  IL-8: 49.8 pg/mL
IL-8 [2]; LPS 200 ng/ml + 15 μg/ml
  IL-8 release by the 7016 HUVECs (in words): complete eliminated IL-8 release
  decrease of IL-8 release in the 9713 HUVECs: 90%
NFκB; TNFα 10 ng/ml + 15 μg/ml, control 0.174, TNFα only 0.881
  Mean OD 450 nm (NFκB): 0.302 ± 0.003
NFκB; VEGF 10 ng/ml + 15 μg/ml, control 0.174, VEGF only 0.220
  Mean OD 450 nm (NFκB): 0.066 + 0.005
RAS
  inhibition of RAS protein (in words): very strong inhibition of RAS protein
RAS; no treatment 66.83, beads only 245.91
  Integrated Optical Density for RAS assay: 84.98
STAT4
  Effect of Cpd II on the protein in CD3/CD28 stimulated TRiPS cells: Activated
PI3kinaseP85
  Effect of Cpd II on the protein in CD3/CD28 stimulated TRiPS cells: Activated
IL-4
  Effect of Cpd II on the protein in CD3/CD28 stimulated TRiPS cells: Decreased level back to basal levels (Nil control)
STAT6
  Effect of Cpd II on the protein in CD3/CD28 stimulated TRiPS cells: Slightly decreased the level
IkB-α
  Effect of Cpd II on the protein in CD3/CD28 stimulated TRiPS cells: Slightly decreased the level
